# Measured values from paper PMC9578445, “Association of respiratory failure with inhibition of NaV1.6 in the phrenic nerve” (Channels, 2022).
# Like-named read-outs stand apart in the source and are kept apart here.
# Experiments:
# [1] = molecular target: Nav1.6 (Homo sapiens, UniProt Q9UQD0); assay: PatchXpress automated patch clamp, hyperpolarized-state protocol; assay type: cell-based; parameters: expressed in transfected cells
# Procedure: (§1) Sodium currents were recorded from recombinant Human Embryonic Kidney 293 cell lines stably overexpressing the respective sodium channel type (NaV1.2, 1.5, 1.4, 1.6, 1.7). Recording solutions were comprised of the following (in mM): Internal solution: 30 CsCl, 5 HEPES, 10 EGTA, 120 CsF, 5 NaF, 2 MgCl2, pH = 7.3 with CsOH; External solution 1: 40 NaCl, 120 NMDG, 1 KCl, 0.5 MgCl2, 5 HEPES, 2.7 CaCl2, pH to 7.3 with NaOH, used for NaV1.5 recordings; External solution 2: 150 NaCl, 5 KCl, 2 CaCl2, 1 MgCl2, 10 HEPES, 12 Dextrose, pH 7.3 with NaOH, used for NaV1.7, 1.6, 1.4, and 1.2 recordings.
# (§2) Whole-cell currents were recorded from cells stably expressing NaV channels using the PatchXpress 7000A automated patch clamp platform (Molecular Devices, LLC; Sunnyvale, CA). A portable air-conditioning unit was installed on the PatchXpress instruments to maintain the temperature of the headstage at 21°C. Cells were voltage clamped at −60 mV for cell detection and sealing. At the start of each recording, a voltage curve and an inactivation curve was run for each cell to determine the voltage at which 50% of the channels reside in the inactivated state (V0.5 inact). The voltage curve was used to determine if the cell was adequately clamped; cells with currents larger than 10nA or with space clamp issues were not used further.
# (§3) NaV1.7, NaV1.6, NaV1.4: Compound potency was measured in a hyperpolarized-state protocol where the holding potential for each cell was set to V0.5inact – 20 mV. A pulse train consisting of 7 consecutive double pulses, 8 second hypepolarizing prepulse to −120 mV followed by a test pulse to −10 mV was applied at a frequency of 0.1 Hz. First, vehicle (0.3% DMSO) was added to establish a baseline measurement. Once baseline was established, test compounds were added. Cells were exposed to compound for 5 minutes at 20 mV negative to V0.5inact then exposed to the same hyperpolarized voltage protocol. (no pulsing during compound incubation). A washout was performed to measure recovery of the sodium currents from inhibition.
# (§4) Recordings were included for analysis when current amplitude reached steady-state in vehicle, compound inhibition was concentration-dependent and currents recovered during wash-out periods. Raw data from PatchXpress experiments were retrieved from the database and analyzed using the DataXpress 2 software (Molecular Devices).
# (§5) At least 3 concentrations (3–9 replicates per concentration) were tested and at least one concentration had to cause 20–80% current inhibition.
# [2] = Plasma exposure in rat CV/R assay; assay type: in vivo; conditions: for concentration at 15 min / concentration at 30 min: CD, plasma, iv
# Source text: For in vivo CVR and phrenic nerve activity studies, all raw signals were amplified via general purposed biological amplifier (filter settings DC – 3-5 KhZ) then digitized, calibrated and collected at a minimum of 500 Hz (1000 Hz for ECG and 2000 Hz for cardiac electrograms, and 10 KHz for phrenic nerve activity) using Notocord-HEM data acquisition and analysis software. The raw signal was filtered following acquisition with a bandpass filter set to 200–800 Hz). Vehicle (100% dimethylformamdide, DMF) or compound formulated in the vehicle was administered as a 30-minute IV infusion at 0.0167 μL/g body weight/min. […] Exposure in rats was determined in separate pharmacokinetics experiments where compounds were administered via IV dosing.
# [3] = molecular target: T1, Rat NaV1.6 (Rattus norvegicus, UniProt O88420); assay: PatchXpress automated patch clamp, hyperpolarized-state protocol; assay type: cell-based
# T1 construct: expressed in transfected cells; host or cells: HEK cells
# Procedure: as §1, §2, §3, §4, §5
# [4] = molecular target: T2, Human NaV1.7 (Homo sapiens, UniProt Q15858); assay: as above; assay type: cell-based; conditions: HEK 293 cells
# T2 construct: expressed in transfected cells
# Procedure: as §1, §2, §3, §4, §5
# [5] = tested on: anesthetized male CD rats; assay: Rat Cardiovascular/Respiratory (CV/R) assay; assay type: in vivo; parameters: ∆ QRS Interval: unit not given here; conditions: IV infusion; for ∆ respiratory rate / ∆ Heart Rate / ∆ Mean Arterial Pressure / ∆ QRS Interval: rat, 1 mg/kg
# Procedure: Male CD Rats were anesthetized with ketamine:xylazine (85 mg/kg:5 mg/kg, im, to effect). The left femoral artery and vein were cannulated for the measurement of blood pressure and the administration of test agent, respectively. The right femoral vein was cannulated for maintenance anesthetic infusion (ketamine:xylazine ~35 mg/kg/hr:1.5 mg/kg/hr, iv, to effect). Needle electrodes were placed subcutaneously at the right axillary and left inguinal areas to record lead II ECGs. When ECG intervals were required to determine effect on cardiac conduction a pacing/recording electrode catheter was advanced through the right jugular vein to pace the heart. ECG intervals were then measured at a fixed cardiac rate of 400 beats/minute to remove any variability of intrinsic heart rate on these parameters.
# To determine the test agent-dependent effect on respiratory rate, a tracheotomy was also performed using a short length of polyethylene tubing containing a thermistor (AD Instruments). The change in temperature detected by the thermistor was used to calculate respiratory rate.
# For in vivo CVR and phrenic nerve activity studies, all raw signals were amplified via general purposed biological amplifier (filter settings DC – 3-5 KhZ) then digitized, calibrated and collected at a minimum of 500 Hz (1000 Hz for ECG and 2000 Hz for cardiac electrograms, and 10 KHz for phrenic nerve activity) using Notocord-HEM data acquisition and analysis software. The raw signal was filtered following acquisition with a bandpass filter set to 200–800 Hz). Vehicle (100% dimethylformamdide, DMF) or compound formulated in the vehicle was administered as a 30-minute IV infusion at 0.0167 μL/g body weight/min. Doses were selected to achieve unbound plasma concentrations in range of measured Nav1.6 IC50 values when infused at 0.0167uL/g body weight/min based on measured rat clearance, plasma protein binding and Nav1.6 IC50. Exposure in rats was determined in separate pharmacokinetics experiments where compounds were administered via IV dosing.
# [6] = rat, 1 mg/kg, rat, IV infusion, 1 mg/kg, read-out: Total [plasma]
# [7] = rat, 1 mg/kg, rat, IV infusion, 1 mg/kg, read-out: Unbound [plasma]
# [8] = rat, IV infusion, 1 mg/kg, 20–23 min, just prior to death
# Chain of Nav1.6 (Q9UQD0 whole entry): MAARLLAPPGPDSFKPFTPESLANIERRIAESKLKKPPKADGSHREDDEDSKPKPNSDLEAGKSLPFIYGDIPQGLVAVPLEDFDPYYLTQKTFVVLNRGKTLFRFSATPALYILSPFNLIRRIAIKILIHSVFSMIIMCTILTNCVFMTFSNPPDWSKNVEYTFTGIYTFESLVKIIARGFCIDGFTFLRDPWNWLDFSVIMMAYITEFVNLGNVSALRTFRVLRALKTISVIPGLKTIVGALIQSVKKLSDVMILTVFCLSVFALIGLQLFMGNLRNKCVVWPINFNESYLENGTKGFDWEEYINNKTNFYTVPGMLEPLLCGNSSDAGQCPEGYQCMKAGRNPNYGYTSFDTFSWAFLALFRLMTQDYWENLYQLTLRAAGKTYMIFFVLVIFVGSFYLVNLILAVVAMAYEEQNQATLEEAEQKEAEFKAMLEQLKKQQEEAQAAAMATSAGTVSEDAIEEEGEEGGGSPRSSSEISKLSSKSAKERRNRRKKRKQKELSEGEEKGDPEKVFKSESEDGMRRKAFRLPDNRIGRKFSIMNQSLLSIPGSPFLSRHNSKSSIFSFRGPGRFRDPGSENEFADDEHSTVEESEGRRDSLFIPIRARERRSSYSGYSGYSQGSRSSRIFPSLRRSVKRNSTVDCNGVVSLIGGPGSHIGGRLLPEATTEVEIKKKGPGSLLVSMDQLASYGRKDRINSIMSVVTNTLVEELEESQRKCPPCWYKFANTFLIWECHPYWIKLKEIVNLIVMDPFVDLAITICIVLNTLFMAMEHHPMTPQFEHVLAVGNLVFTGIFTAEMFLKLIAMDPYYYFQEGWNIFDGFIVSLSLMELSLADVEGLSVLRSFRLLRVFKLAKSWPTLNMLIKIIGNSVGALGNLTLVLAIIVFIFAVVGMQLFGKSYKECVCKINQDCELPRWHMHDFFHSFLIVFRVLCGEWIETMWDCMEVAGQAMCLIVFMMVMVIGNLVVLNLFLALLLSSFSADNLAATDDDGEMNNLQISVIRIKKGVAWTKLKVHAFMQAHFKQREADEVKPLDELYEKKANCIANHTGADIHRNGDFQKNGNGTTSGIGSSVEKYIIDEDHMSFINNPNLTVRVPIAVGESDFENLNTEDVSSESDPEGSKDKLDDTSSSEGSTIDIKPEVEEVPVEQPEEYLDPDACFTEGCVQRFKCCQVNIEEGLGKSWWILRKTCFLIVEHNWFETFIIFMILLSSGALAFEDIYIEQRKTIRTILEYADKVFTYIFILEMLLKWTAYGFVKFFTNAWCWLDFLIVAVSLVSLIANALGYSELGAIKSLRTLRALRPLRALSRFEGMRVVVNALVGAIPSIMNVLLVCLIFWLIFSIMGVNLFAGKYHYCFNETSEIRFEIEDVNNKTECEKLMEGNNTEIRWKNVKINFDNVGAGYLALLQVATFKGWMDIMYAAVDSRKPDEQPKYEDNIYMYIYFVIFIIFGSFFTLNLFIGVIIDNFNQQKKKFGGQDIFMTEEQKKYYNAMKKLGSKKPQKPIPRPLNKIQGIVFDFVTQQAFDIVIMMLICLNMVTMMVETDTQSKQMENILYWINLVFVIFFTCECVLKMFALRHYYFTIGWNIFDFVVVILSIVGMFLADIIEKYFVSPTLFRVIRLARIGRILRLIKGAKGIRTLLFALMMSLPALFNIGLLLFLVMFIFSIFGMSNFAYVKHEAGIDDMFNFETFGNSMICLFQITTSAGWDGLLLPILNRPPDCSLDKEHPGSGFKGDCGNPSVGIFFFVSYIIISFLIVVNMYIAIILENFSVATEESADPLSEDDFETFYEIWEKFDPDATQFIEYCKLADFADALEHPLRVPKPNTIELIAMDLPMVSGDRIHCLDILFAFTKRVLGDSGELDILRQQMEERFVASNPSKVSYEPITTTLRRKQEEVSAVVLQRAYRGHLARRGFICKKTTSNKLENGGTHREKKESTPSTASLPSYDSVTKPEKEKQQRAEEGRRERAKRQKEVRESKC
# T1 sequence (O88420 whole entry): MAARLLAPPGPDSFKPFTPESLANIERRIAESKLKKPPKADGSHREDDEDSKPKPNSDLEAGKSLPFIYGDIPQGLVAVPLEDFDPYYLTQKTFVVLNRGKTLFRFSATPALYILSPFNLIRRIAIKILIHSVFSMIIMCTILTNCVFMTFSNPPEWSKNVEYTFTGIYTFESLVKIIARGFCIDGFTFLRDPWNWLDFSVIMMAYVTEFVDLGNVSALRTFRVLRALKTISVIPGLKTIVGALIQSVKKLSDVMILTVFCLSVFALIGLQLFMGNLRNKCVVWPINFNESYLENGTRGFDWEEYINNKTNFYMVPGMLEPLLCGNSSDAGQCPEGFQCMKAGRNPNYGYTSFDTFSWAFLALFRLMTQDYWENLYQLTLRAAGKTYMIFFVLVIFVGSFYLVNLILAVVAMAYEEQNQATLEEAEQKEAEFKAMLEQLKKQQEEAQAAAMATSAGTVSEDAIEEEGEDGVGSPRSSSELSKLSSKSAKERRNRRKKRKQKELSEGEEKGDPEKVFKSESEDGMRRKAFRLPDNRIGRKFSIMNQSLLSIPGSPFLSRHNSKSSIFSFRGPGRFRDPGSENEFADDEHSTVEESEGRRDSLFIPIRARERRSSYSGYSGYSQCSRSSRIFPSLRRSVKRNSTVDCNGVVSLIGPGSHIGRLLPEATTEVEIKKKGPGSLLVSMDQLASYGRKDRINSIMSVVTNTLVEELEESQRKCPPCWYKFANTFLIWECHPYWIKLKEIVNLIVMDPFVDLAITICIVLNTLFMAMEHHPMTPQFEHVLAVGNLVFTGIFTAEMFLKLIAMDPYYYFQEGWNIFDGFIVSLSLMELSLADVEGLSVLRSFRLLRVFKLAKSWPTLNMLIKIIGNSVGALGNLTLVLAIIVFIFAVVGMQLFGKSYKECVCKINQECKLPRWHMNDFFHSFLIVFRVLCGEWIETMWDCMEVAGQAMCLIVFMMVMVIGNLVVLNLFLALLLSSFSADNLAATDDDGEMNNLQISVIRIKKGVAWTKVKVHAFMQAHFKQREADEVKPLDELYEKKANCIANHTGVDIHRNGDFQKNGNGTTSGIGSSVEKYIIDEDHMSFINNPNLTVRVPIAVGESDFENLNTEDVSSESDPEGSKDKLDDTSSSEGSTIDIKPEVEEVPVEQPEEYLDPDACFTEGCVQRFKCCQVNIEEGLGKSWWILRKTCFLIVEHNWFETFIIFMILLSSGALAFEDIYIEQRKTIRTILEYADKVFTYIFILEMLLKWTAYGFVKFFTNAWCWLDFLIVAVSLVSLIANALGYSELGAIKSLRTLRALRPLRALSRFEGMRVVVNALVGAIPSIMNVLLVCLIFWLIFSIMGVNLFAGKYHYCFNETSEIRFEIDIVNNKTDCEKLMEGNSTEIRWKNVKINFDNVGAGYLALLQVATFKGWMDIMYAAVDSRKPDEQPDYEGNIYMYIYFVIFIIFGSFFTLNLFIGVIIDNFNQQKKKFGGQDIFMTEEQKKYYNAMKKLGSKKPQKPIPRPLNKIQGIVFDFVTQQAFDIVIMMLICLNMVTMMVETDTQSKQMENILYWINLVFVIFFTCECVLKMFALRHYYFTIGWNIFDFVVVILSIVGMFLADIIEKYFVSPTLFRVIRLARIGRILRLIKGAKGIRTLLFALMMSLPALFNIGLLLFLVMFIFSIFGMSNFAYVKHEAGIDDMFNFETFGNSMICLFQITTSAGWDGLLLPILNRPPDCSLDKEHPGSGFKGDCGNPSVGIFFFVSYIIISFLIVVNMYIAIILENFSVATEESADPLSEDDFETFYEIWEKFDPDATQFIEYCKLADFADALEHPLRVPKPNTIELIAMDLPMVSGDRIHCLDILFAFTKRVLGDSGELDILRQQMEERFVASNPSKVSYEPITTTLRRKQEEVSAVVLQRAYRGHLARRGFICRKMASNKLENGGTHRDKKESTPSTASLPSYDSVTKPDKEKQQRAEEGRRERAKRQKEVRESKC
smiles,measurement,setting,value
COc1ccc(CCC(c2cccc3c2CNCC3)n2c(=O)oc3cc(S(=O)(=O)Nc4ncns4)c(F)cc32)cc1 (stereo not shown) [SSCI-6],fold more potent at inhibiting NaV1.6 channels,[1],approximately 10 fold
same,IC50,"[1]; HEK 293 cells, hyperpolarized protocol",23 nM
same,concentration at 15 min,[2]; [6],1400 ± 200 nM
same,concentration at 15 min,[2]; [7],25 ± 4 nM
same,concentration at 30 min,[2]; [6],1500 nM
same,concentration at 30 min,[2]; [7],27 nM
same,unbound plasma concentration just prior to death,"[2]; rat CV/R assay, blood samples taken just prior to death",50 nM
same,Total [plasma],[2]; [8],2.8a μM
same,Unbound [plasma],[2]; [8],0.050a μM
same,IC50,"[3]; HEK cells, hyperpolarized protocol",> 41 nM
same,inhibition at 0.041 µM,[3]; at 41 nM,45%
same,IC50,[4],290 nM
same,mortality,"[5]; rat CV/R assay, doses tested",mortality
same,∆ respiratory rate,[5]; 20–23 min,−100%
same,∆ Heart Rate,[5]; 15 min,−0.1 ± 0.4 bpm
same,∆ Mean Arterial Pressure,[5]; 15 min,8.2 ± 7.9 mmHg
same,∆ QRS Interval,[5]; 15 min,1.0 ± 0.8
same,∆ respiratory rate,[5]; 15 min,−18.3 ± 9.3%
same,∆ Heart Rate,[5]; 30 min,1.7 bpm
same,∆ Mean Arterial Pressure,[5]; 30 min,7.5 mmHg
same,∆ QRS Interval,[5]; 30 min,1.7
same,∆ respiratory rate,[5]; 30 min,−7.8%
